Reference: ChEMBL document CHEMBL5512645, “A novel antimicrobial peptide with broad-spectrum and exceptional stability derived from the natural peptide Brevicidine” (Eur J Med Chem, 2024)
≈ marks a conversion by molar mass, not a printed value. Calls of active or inactive are those of the source. The rule behind the calls is not given here. Bridge positions count the residues as written; N and C are the ends. Square brackets hold non-standard residues; d marks the D form. Peptide text beside a SMILES is read from it. * marks the point of attachment. ξ: configuration not given here. Hexanoyl(4ξ-Me) = CCC(C)CCC(=O)*; dOrn = NCCC[C@@H](N)C(=O)O; Orn = NCCC[C@H](N)C(=O)O

Legend:
Staphylococcus aureus [1] = assay: Antibacterial activity against Staphylococcus aureus ATCC 25923 pretreated with 10% mouse serum followed by compound addition and measured after 1 hr by broth microdilution method (reference value: 8 microM); assay type: functional
Staphylococcus aureus [2] = assay: Antibacterial activity against Staphylococcus aureus ATCC 25923 pretreated with 2.5% mouse serum followed by compound addition and measured after 6 hrs by broth microdilution method (reference value: 8 microM); assay type: functional
Staphylococcus aureus [3] = assay: Antibacterial activity against Staphylococcus aureus ATCC 25923 pretreated with 10% mouse serum followed by compound addition and measured after 6 hrs by broth microdilution method (reference value: 8 microM); assay type: functional
Staphylococcus aureus [4] = assay: Antibacterial activity against Staphylococcus aureus ATCC 25923 pretreated with Na-cl followed by compound addition and measured after 2 hrs by broth microdilution method (reference value: 8 microM); assay type: functional
Staphylococcus aureus [5] = assay: Antibacterial activity against Staphylococcus aureus ATCC 25923 pretreated with Kcl followed by compound addition and measured after 2 hrs by broth microdilution method (reference value: 8 microM); assay type: functional
Staphylococcus aureus [6] = assay: Antibacterial activity against Staphylococcus aureus ATCC 25923 pretreated with FeCl3 followed by compound addition and measured after 2 hrs by broth microdilution method (reference value: 8 microM); assay type: functional
Staphylococcus aureus [7] = assay: Bactericidal activity against Staphylococcus aureus ATCC 25923 assessed as assessed as eradication of bacterial cells at 1 to 4 times MIC measured after 0.5 to 1 hr by time killing analysis; assay type: functional, organism-based; settings: time 0.5-1 hrs
Cell membrane [8] = assay: Induction of outer membrane permeabilization in Pseudomonas aeruginosa ATCC 27853 assessed increase in fluorescence intensity at 1/2 to 4 times MIC measured upto 12 mins by fluorescence based NPN uptake assay; assay type: cell membranes
Cell membrane [9] = assay: Induction of cytoplasmic membrane depolarization in Staphylococcus aureus ATCC 25923 assessed as increase in fluorescence intensity measured upto 12 min by DiSC3-5 dye based fluorescence method; assay type: cell membranes
Pseudomonas aeruginosa [10] = assay: Induction of morphological changes in Pseudomonas aeruginosa ATCC 27853 assessed as adhesion at 2 times MIC measured after 0.5 hrs by SEM based analysis; assay type: functional, organism-based
Staphylococcus aureus [11] = assay: Induction of morphological changes in Staphylococcus aureus ATCC 25923 assessed as increase in volume of swelling at 2 times MIC measured after 2 hrs by SEM based analysis; assay type: functional, organism-based
[12] = Toxicity in male BALB/c mouse assessed as survival rate at 42.6 mg/kg, ip measured after 6 days relative to control; assay type: organism-based; settings: in vivo, time 6 day
[13] = Toxicity in male BALB/c mouse assessed as survival rate at 62.6 mg/kg, ip measured after 6 days relative to control; assay type: organism-based; settings: in vivo, time 6 day
[14] = Toxicity in male BALB/c mouse assessed as survival rate at 132.7 mg/kg, ip measured after 6 days relative to control; assay type: organism-based; settings: in vivo, time 6 day
[15] = Toxicity in male BALB/c mouse assessed as lethal dose administered as ip measured after 7 days; assay type: organism-based; settings: male, BALB/c, in vivo, time 7 day
Staphylococcus aureus [16] = assay: In vivo antibacterial activity against Staphylococcus aureus ATCC 25923 infected in BALB/c mouse model assessed as reduction in bacterial count in liver at 10 mg/kg, ip preadministered with compound for 1 hr followed by bacterial infection and measured after 6 hrs […]; assay type: functional, organism-based; settings: time 7.0 hrs
Staphylococcus aureus [17] = assay: Antibacterial activity against Staphylococcus aureus ATCC 25923 assessed as fold increase in MIC pretreated with FeCl3 followed by compound addition and measured after 2 hrs by broth microdilution method; assay type: functional
Staphylococcus aureus [18] = assay: Antibacterial activity against Staphylococcus aureus ATCC 25923 pretreated with 2.5% mouse serum followed by compound addition and measured after 6 hrs by broth microdilution method (reference value: 64 microM); assay type: functional
Staphylococcus aureus [19] = assay: Antibacterial activity against Staphylococcus aureus ATCC 25923 pretreated with 5% mouse serum followed by compound addition and measured after 6 hrs by broth microdilution method (reference value: 64 microM); assay type: functional
Staphylococcus aureus [20] = assay: Antibacterial activity against Staphylococcus aureus ATCC 25923 pretreated with 10% mouse serum followed by compound addition and measured after 6 hrs by broth microdilution method (reference value: 64 microM); assay type: functional
Staphylococcus aureus [21] = assay: Antibacterial activity against Staphylococcus aureus ATCC 25923 pretreated with 20% mouse serum followed by compound addition and measured after 6 hrs by broth microdilution method (reference value: 64 microM); assay type: functional
Staphylococcus aureus [22] = assay: Antibacterial activity against Staphylococcus aureus ATCC 25923 pretreated with Na-cl followed by compound addition and measured after 2 hrs by broth microdilution method (reference value: 64 microM); assay type: functional
Staphylococcus aureus [23] = assay: Antibacterial activity against Staphylococcus aureus ATCC 25923 pretreated with Kcl followed by compound addition and measured after 2 hrs by broth microdilution method (reference value: 64 microM); assay type: functional
Pseudomonas aeruginosa [24] = assay: Bactericidal activity against Pseudomonas aeruginosa ATCC 27853 assessed as assessed as eradication of bacterial cells at 1/2 to 1 times MIC measured after 1 hr by time killing analysis relative to control; assay type: functional
Staphylococcus aureus [25] = assay: Bactericidal activity against Staphylococcus aureus ATCC 25923 assessed as assessed as eradication of bacterial cells at 1/2 to 4 times MIC measured after 0.5 hr by time killing analysis; assay type: functional, organism-based
Pseudomonas aeruginosa [26] = assay: Antimicrobial activity against Pseudomonas aeruginosa ATCC 27853 assessed as reduction in microbial growth at 2 times MIC measured for 18 hrs in presence of 64 microg/ml LPS; assay type: functional, organism-based
Cell membrane [27] = assay: Induction of cytoplasmic membrane depolarization in Staphylococcus aureus ATCC 25923 assessed as increase in fluorescence intensity at 1/2 to 4 times MIC measured within 1 min by DiSC3-5 dye based fluorescence method; assay type: cell membranes
Pseudomonas aeruginosa [28] = assay: Antibacterial activity against Pseudomonas aeruginosa ATCC 27853 assessed as fold increase in MIC pretreated with 2.5 to 20% mouse serum followed by compound addition and measured after 6 hr by broth microdilution method; assay type: functional
Staphylococcus aureus [29] = assay: Antibacterial activity against Staphylococcus aureus ATCC 25923 pretreated with 20% mouse serum followed by compound addition and measured after 1 hr by broth microdilution method (reference value: 16 microM); assay type: functional, organism-based
Staphylococcus aureus [30] = assay: Antibacterial activity against Staphylococcus aureus ATCC 25923 pretreated with 10% mouse serum followed by compound addition and measured after 6 hrs by broth microdilution method (reference value: 16 microM); assay type: functional, organism-based
Staphylococcus aureus [31] = assay: Antibacterial activity against Staphylococcus aureus ATCC 25923 pretreated with 20% mouse serum followed by compound addition and measured after 6 hrs by broth microdilution method (reference value: 16 microM); assay type: functional, organism-based
Staphylococcus aureus [32] = assay: Antibacterial activity against Staphylococcus aureus ATCC 25923 pretreated with Kcl followed by compound addition and measured after 2 hrs by broth microdilution method (reference value: 16 microM); assay type: functional, organism-based
Staphylococcus aureus [33] = assay: Antibacterial activity against Staphylococcus aureus ATCC 25923 pretreated with ZnCl2 followed by compound addition and measured after 2 hrs by broth microdilution method (reference value: 16 microM); assay type: functional, organism-based
Pseudomonas aeruginosa [34] = assay: Antibiofilm activity against Pseudomonas aeruginosa ATCC 27853 assessed as biofilm eradication at 1/2 to 4 times MIC measured after 24 hrs by crystal violet staining based analysis; assay type: functional, organism-based
Cell membrane [35] = assay: Induction of cytoplasmic membrane depolarization in Staphylococcus aureus ATCC 25923 assessed as increase in fluorescence intensity at 4 times MIC measured upto 12 min by DiSC3-5 dye based fluorescence method; assay type: cell membranes

For `CCCCCCCCCC(=O)N[C@H](CCCN)C(=O)N[C@H](Cc1ccc(O)cc1)C(=O)N[C@H](Cc1c[nH]c2ccccc12)C(=O)N[C@H](CCCN)C(=O)N[C@@H](CCCN)C(=O)NCC(=O)N[C@H](CCCN)C(=O)N[C@@H](Cc1c[nH]c2ccccc12)C(=O)N[C@H](C(=O)N[C@H](C(=O)NCC(=O)N[C@@H](CO)C(=O)O)[C@@H](C)CC)[C@@H](C)O`, the MIC (Staphylococcus aureus [1]) was 32 µM (≈ 50.6 µg/mL), the MIC (Staphylococcus aureus [2]) was 16 µM (≈ 25.3 µg/mL) and the MIC (Staphylococcus aureus [3]) was 32 µM (≈ 50.6 µg/mL). The MIC (Staphylococcus aureus [4]) was 16 µM (≈ 25.3 µg/mL), the MIC (Staphylococcus aureus [5]) was 8 µM (≈ 12.6 µg/mL) and the MIC (Staphylococcus aureus [6]) was 8 µM (≈ 12.6 µg/mL). For the same molecule, the Activity (Staphylococcus aureus [7]) was “Active”, the Activity (Cell membrane [8]) was “inactive” and the Activity (Cell membrane [9]) was “Dose-Dependent Effect”. For the same molecule, the Activity (Pseudomonas aeruginosa [10]) was “Active”, the Activity (Staphylococcus aureus [11]) was “Active” and the survival at 144 h [12] was 50%. The survival at 144 h [13] was 12.5%, the survival at 144 h [14] was 0% and the LD50 at 168 h [15] was 46.9 mg/kg. The Activity (Staphylococcus aureus [16]) was “Active” and the “fold change (FC)” value (Staphylococcus aureus [17]) was 2.
Work on `CCC(C)CCC(=O)N[C@H](CC(N)=O)C(=O)N[C@H](Cc1ccc(O)cc1)C(=O)N[C@H](Cc1c[nH]c2ccccc12)C(=O)N[C@H](CCCN)C(=O)N[C@@H](CCCN)C(=O)NCC(=O)N[C@H](CCCN)C(=O)N[C@@H](Cc1c[nH]c2ccccc12)C(=O)N[C@@H]1C(=O)N[C@@H]([C@@H](C)CC)C(=O)NCC(=O)N[C@@H](CO)C(=O)O[C@@H]1C` (stereo not given in full) ({Hexanoyl(4ξ-Me)}-[dN][dY][dW][dOrn][Orn]G[dOrn]WTIGS; ester 9-C) yielded an MIC (Staphylococcus aureus [18]) of 128 µM (≈ 195 µg/mL), an MIC (Staphylococcus aureus [19]) of 128 µM (≈ 195 µg/mL) and an MIC (Staphylococcus aureus [20]) of 128 µM (≈ 195 µg/mL). The MIC (Staphylococcus aureus [21]) was 128 µM (≈ 195 µg/mL), the MIC (Staphylococcus aureus [22]) was 128 µM (≈ 195 µg/mL) and the MIC (Staphylococcus aureus [23]) was 64 µM (≈ 97.3 µg/mL). The Activity (Pseudomonas aeruginosa [24]) was 100%, the Activity (Staphylococcus aureus [25]) was “Active” and the Activity (Pseudomonas aeruginosa [26]) was “inactive”. The Activity (Cell membrane [27]) was “Active” and the “fold change (FC)” value (Pseudomonas aeruginosa [28]) was 4.
POLYMYXIN B showed an MIC (Staphylococcus aureus [29]) of 16 µM, an MIC (Staphylococcus aureus [30]) of 16 µM and an MIC (Staphylococcus aureus [31]) of 16 µM. The MIC (Staphylococcus aureus [32]) was 8 µM, the MIC (Staphylococcus aureus [33]) was 32 µM and the Activity (Pseudomonas aeruginosa [34]) was “Active”. For the same molecule, the Activity (Cell membrane [35]) was “inactive”.
